Assay results taken from PMC7531004, “Discovery of gramicidin A analogues with altered activities by multidimensional screening of a one-bead-one-compound library” (Nature Communications, 2020).
Where a SMILES comes first, the peptide text is derived from it. [ ]: non-standard residue; d: D form. The star is where a group is joined. NHCH2CH2OH = OCCN*; For = O=C*

How the values were obtained:
[1] = H+/Na+ transport assay of bead-derived peptides (one-point); format: biochemical; design: key: relative activity; mean of two control wells = 1.00; details: bead-derived peptide solution, EYPC/EYPG LUVs;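 note: relative to parent gramicidin A activity set to 1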
In short: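 H+/Na+ transport is monitored through pyranine fluorescence in freshly extruded LUVs after a 30-min room-temperature vortex with each library peptide at a single concentration. Signals are normalized to detergent (Triton X-100) and untreated controls.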

[2] = tested on: Streptococcus pyogenes SSI-9; assay: Antibacterial activity assay of bead-derived peptides (three concentrations); format: cell-based; design: key: +++: inhibition by the 640-fold diluted peptide solution; ++: inhibition by the 160-fold diluted solution; +: inhibition by the 40-fold diluted solution; -: no inhibition; details: S. pyogenes, bead-derived peptide solution, three concentrations
In short: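 Growth inhibition scored visually as precipitated bacteria after 37 °C, 18 h incubation. Streptococcus pyogenes SSI-9 inoculum of 2 × 10^5 CFU in Ca2+/Mg2+-adjusted Mueller Hinton broth plus 5% laked horse blood; peptides tested at three levels: stock, 4-fold and 16-fold DMSO dilutions.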

[3] = cell viability/%
In short: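 Peptide stocks diluted 250× in growth medium; P388 cells 1 × 10^4 cells/mL final; 37 °C, 5% CO2, 92 h. WST-1 + 1-methoxy PMS, 4 h, A415. Output: % viability.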

Row | SMILES | H+/Na+ transport activity normalized against the value of 1 (1.00) [1] | antibacterial activity [2] | viability [3]
1 | CNC(=O)C[C@@H](NC(=O)[C@H](Cc1c[nH]c2ccccc12)NC(=O)[C@H](NC(=O)[C@H](Cc1c[nH]c2ccccc12)NC(=O)[C@@H](CC(C)C)NC(=O)[C@H](Cc1c[nH]c2ccccc12)NC(=O)[C@H](NC(=O)[C@@H](NC(=O)[C@@H](CC(C)C)NC(=O)[C@H](C)NC(=O)[C@H](NC(=O)[C@H](C)NC(=O)CNC(=O)[C@@H](NC=O)C(C)C)C(C)C)C(C)C)C(C)C)C(C)C)C(=O)N[C@@H](Cc1c[nH]c2ccccc12)C(=O)NCCO [compound 2425] (For-VGA[dV]A[dL]V[dV]W[dL]W[dV]W[dD](NHMe)W-NHCH2CH2OH) | 1.07 | - | 100%
2 | CC(C)C[C@@H](NC(=O)[C@H](Cc1c[nH]c2ccccc12)NC(=O)[C@@H](CC(C)C)NC(=O)[C@H](Cc1c[nH]c2ccccc12)NC(=O)[C@H](NC(=O)[C@H](Cc1c[nH]c2ccccc12)NC(=O)[C@H](NC(=O)[C@@H](NC(=O)[C@H](NC(=O)[C@H](C)NC(=O)[C@H](NC(=O)[C@H](C)NC(=O)CNC(=O)[C@@H](NC=O)C(C)C)C(C)C)C(C)C)C(C)C)C(C)C)C(C)C)C(=O)N[C@@H](Cc1c[nH]c2ccccc12)C(=O)NCCO [compound 1119] (For-VGA[dV]A[dV]V[dV]W[dV]W[dL]W[dL]W-NHCH2CH2OH) | 1.10 | - | 100%
3 | CC(C)C[C@@H](NC(=O)[C@H](C)NC(=O)CNC(=O)[C@@H](NC=O)C(C)C)C(=O)N[C@@H](C)C(=O)N[C@H](CC(C)C)C(=O)N[C@H](C(=O)N[C@@H](C(=O)N[C@@H](Cc1c[nH]c2ccccc12)C(=O)N[C@@H](C(=O)N[C@@H](Cc1c[nH]c2ccccc12)C(=O)N[C@@H](C(=O)N[C@@H](Cc1c[nH]c2ccccc12)C(=O)N[C@H](CC(C)C)C(=O)N[C@@H](Cc1c[nH]c2ccccc12)C(=O)NCCO)C(C)C)[C@H](C)O)[C@H](C)O)C(C)C [compound 3782] (For-VGA[dL]A[dL]V[dT]W[dT]W[dV]W[dL]W-NHCH2CH2OH) | 1.12 | - | 100%
4 | CC(C)C[C@@H](NC(=O)[C@H](Cc1c[nH]c2ccccc12)NC(=O)[C@@H](CC(C)C)NC(=O)[C@H](Cc1c[nH]c2ccccc12)NC(=O)[C@@H](CC(C)C)NC(=O)[C@H](Cc1c[nH]c2ccccc12)NC(=O)[C@H](NC(=O)[C@@H](NC(=O)[C@H](NC(=O)[C@H](C)NC(=O)[C@H](NC(=O)[C@H](C)NC(=O)CNC(=O)[C@@H](NC=O)C(C)C)C(C)C)[C@H](C)O)C(C)C)C(C)C)C(=O)N[C@@H](Cc1c[nH]c2ccccc12)C(=O)NCCO [compound 13151] (For-VGA[dV]A[dT]V[dV]W[dL]W[dL]W[dL]W-NHCH2CH2OH) | 1.01 | - | 100%
5 | CC(C)C[C@@H](NC(=O)[C@H](C)NC(=O)[C@H](NC(=O)[C@H](C)NC(=O)CNC(=O)[C@@H](NC=O)C(C)C)C(C)C)C(=O)N[C@H](C(=O)N[C@@H](C(=O)N[C@@H](Cc1c[nH]c2ccccc12)C(=O)N[C@H](CC(C)C)C(=O)N[C@@H](Cc1c[nH]c2ccccc12)C(=O)N[C@@H](C(=O)N[C@@H](Cc1c[nH]c2ccccc12)C(=O)N[C@H](CC(C)C)C(=O)N[C@@H](Cc1c[nH]c2ccccc12)C(=O)NCCO)[C@H](C)O)C(C)C)C(C)C [compound 9177] (For-VGA[dV]A[dL]V[dV]W[dL]W[dT]W[dL]W-NHCH2CH2OH) | 1.05 | - | 61.7%
6 | CNC(=O)C[C@@H](NC(=O)[C@@H](NC(=O)[C@H](NC(=O)[C@H](C)NC(=O)[C@@H](CC(C)C)NC(=O)[C@H](C)NC(=O)CNC(=O)[C@@H](NC=O)C(C)C)C(C)C)C(C)C)C(=O)N[C@@H](Cc1c[nH]c2ccccc12)C(=O)N[C@@H](C(=O)N[C@@H](Cc1c[nH]c2ccccc12)C(=O)N[C@@H](C(=O)N[C@@H](Cc1c[nH]c2ccccc12)C(=O)N[C@H](CC(C)C)C(=O)N[C@@H](Cc1c[nH]c2ccccc12)C(=O)NCCO)C(C)C)C(C)C [compound 3596] (For-VGA[dL]A[dV]V[dD](NHMe)W[dV]W[dV]W[dL]W-NHCH2CH2OH) | 1.06 | - | 100%
7 | CNC(=O)C[C@@H](NC(=O)[C@H](Cc1c[nH]c2ccccc12)NC(=O)[C@@H](CC(C)C)NC(=O)[C@H](Cc1c[nH]c2ccccc12)NC(=O)[C@H](NC(=O)[C@H](Cc1c[nH]c2ccccc12)NC(=O)[C@@H](CC(C)C)NC(=O)[C@@H](NC(=O)[C@@H](CC(C)C)NC(=O)[C@H](C)NC(=O)[C@@H](CC(C)C)NC(=O)[C@H](C)NC(=O)CNC(=O)[C@@H](NC=O)C(C)C)C(C)C)[C@H](C)O)C(=O)N[C@@H](Cc1c[nH]c2ccccc12)C(=O)NCCO [compound 13033] (For-VGA[dL]A[dL]V[dL]W[dT]W[dL]W[dD](NHMe)W-NHCH2CH2OH) | 1.01 | - | 100%
8 | CNC(=O)C[C@@H](NC(=O)[C@@H](NC(=O)[C@H](NC(=O)[C@H](C)NC(=O)[C@@H](CC(C)C)NC(=O)[C@H](C)NC(=O)CNC(=O)[C@@H](NC=O)C(C)C)C(C)C)C(C)C)C(=O)N[C@@H](Cc1c[nH]c2ccccc12)C(=O)N[C@@H](C(=O)N[C@@H](Cc1c[nH]c2ccccc12)C(=O)N[C@H](CC(C)C)C(=O)N[C@@H](Cc1c[nH]c2ccccc12)C(=O)N[C@H](CC(C)C)C(=O)N[C@@H](Cc1c[nH]c2ccccc12)C(=O)NCCO)C(C)C [compound 2118] (For-VGA[dL]A[dV]V[dD](NHMe)W[dV]W[dL]W[dL]W-NHCH2CH2OH) | 1.26 | - | 100%
9 | CC(C)C[C@@H](NC(=O)[C@H](C)NC(=O)CNC(=O)[C@@H](NC=O)C(C)C)C(=O)N[C@@H](C)C(=O)N[C@H](CC(C)C)C(=O)N[C@H](C(=O)N[C@@H](C(=O)N[C@@H](Cc1c[nH]c2ccccc12)C(=O)N[C@@H](C(=O)N[C@@H](Cc1c[nH]c2ccccc12)C(=O)N[C@@H](C(=O)N[C@@H](Cc1c[nH]c2ccccc12)C(=O)N[C@@H](C(=O)N[C@@H](Cc1c[nH]c2ccccc12)C(=O)NCCO)[C@H](C)O)C(C)C)C(C)C)C(C)C)C(C)C [compound 2793] (For-VGA[dL]A[dL]V[dV]W[dV]W[dV]W[dT]W-NHCH2CH2OH) | 1.08 | - | 84.6%
10 | CC(C)C[C@@H](NC(=O)[C@H](Cc1c[nH]c2ccccc12)NC(=O)[C@H](NC(=O)[C@H](Cc1c[nH]c2ccccc12)NC(=O)[C@H](NC(=O)[C@@H](NC(=O)[C@H](NC(=O)[C@H](C)NC(=O)[C@H](NC(=O)[C@H](C)NC(=O)CNC(=O)[C@@H](NC=O)C(C)C)C(C)C)[C@H](C)O)C(C)C)C(C)C)C(C)C)C(=O)N[C@@H](Cc1c[nH]c2ccccc12)C(=O)N[C@@H](C(=O)N[C@@H](Cc1c[nH]c2ccccc12)C(=O)NCCO)C(C)C [compound 7061] (For-VGA[dV]A[dT]V[dV]W[dV]W[dL]W[dV]W-NHCH2CH2OH) | 1.01 | - | 100%
11 | CC(C)C[C@@H](NC(=O)[C@H](C)NC(=O)[C@H](NC(=O)[C@H](C)NC(=O)CNC(=O)[C@@H](NC=O)C(C)C)C(C)C)C(=O)N[C@H](C(=O)N[C@@H](C(=O)N[C@@H](Cc1c[nH]c2ccccc12)C(=O)N[C@@H](C(=O)N[C@@H](Cc1c[nH]c2ccccc12)C(=O)N[C@H](CC(C)C)C(=O)N[C@@H](Cc1c[nH]c2ccccc12)C(=O)N[C@@H](C(=O)N[C@@H](Cc1c[nH]c2ccccc12)C(=O)NCCO)C(C)C)C(C)C)C(C)C)C(C)C [compound 11268] (For-VGA[dV]A[dL]V[dV]W[dV]W[dL]W[dV]W-NHCH2CH2OH) | 1.06 | + | 100%
12 | CC(C)C[C@@H](NC(=O)[C@H](C)NC(=O)CNC(=O)[C@@H](NC=O)C(C)C)C(=O)N[C@@H](C)C(=O)N[C@@H](C(=O)N[C@H](C(=O)N[C@@H](C(=O)N[C@@H](Cc1c[nH]c2ccccc12)C(=O)N[C@H](CC(C)C)C(=O)N[C@@H](Cc1c[nH]c2ccccc12)C(=O)N[C@@H](C(=O)N[C@@H](Cc1c[nH]c2ccccc12)C(=O)N[C@H](CC(C)C)C(=O)N[C@@H](Cc1c[nH]c2ccccc12)C(=O)NCCO)C(C)C)C(C)C)C(C)C)C(C)C [compound 3861] (For-VGA[dL]A[dV]V[dV]W[dL]W[dV]W[dL]W-NHCH2CH2OH) | 1.51 | ++ | 0.1%
13 | CNC(=O)C[C@@H](NC(=O)[C@@H](NC(=O)[C@@H](CC(C)C)NC(=O)[C@H](C)NC(=O)[C@@H](CC(C)C)NC(=O)[C@H](C)NC(=O)CNC(=O)[C@@H](NC=O)C(C)C)C(C)C)C(=O)N[C@@H](Cc1c[nH]c2ccccc12)C(=O)N[C@@H](C(=O)N[C@@H](Cc1c[nH]c2ccccc12)C(=O)N[C@H](CC(C)C)C(=O)N[C@@H](Cc1c[nH]c2ccccc12)C(=O)N[C@H](CC(C)C)C(=O)N[C@@H](Cc1c[nH]c2ccccc12)C(=O)NCCO)C(C)C [compound 2978] (For-VGA[dL]A[dL]V[dD](NHMe)W[dV]W[dL]W[dL]W-NHCH2CH2OH) | 1.18 | - | 100%
